Test results as given in patent publication US20070179161A1, “Pyrazolopyrimidine compounds and their use in medicine” (VERNALIS (CAMBRIDGE) LIMITED., priority 2003, published 2007).
Read-outs that look alike come from different tables or passages of the source.

Legend:
Format in all cases: biochemical
[1] = target: CDK-2 enzyme, complexed with cyclin A (Homo sapiens, UniProt P24941); test: CDK2 enzyme inhibition assay (33P phosphorylation of peptide […], filter plate); conditions: CDK-2/cyclin A, 0.1 mM ATP, 40 min at 30° C.
Description: (§1) The assay mixture containing the inhibitor and CDK-2 enzyme, complexed with cyclin A (0.4 U/ml) was mixed together in a microtiter plate in a final volume of 50 μl and incubated for 40 min at 30° C. The assay mixture contained 0.1 mM unlabeled ATP, 0.01 μCi/μl ^33P-γ-ATP, 0.03 mM peptide, 0.1 mg/ml BSA, 7.5 mM magnesium acetate, 50 mM HEPES-NaOH, pH 7.5. The reaction was stopped by adding 50 μl of 50 mM phosphoric acid. 90 μl of the mixture were transferred to a pre-wetted 96-well Multiscreen MAPHNOB filtration plate (Millipore) and filtered on a vacuum manifold. […] The filtration plate was dried for 10 min at 65° C., scintillant added and phosphorylated peptide quantified in a scintillation counter (Trilux, PerkinElmer)
HEPES is N-[2-Hydroxyethyl]piperazine-N′-[2-ethanesulfonic acid] BSA is bovine serum albumin.

GST-Chk1 enzyme = target: T1, GST-Chk1 enzyme (Homo sapiens, UniProt O14757); test: Chk1 kinase inhibition assay (33P phosphorylation of Chktide, filter plate); conditions: 0.01 mM ATP, 11 nM GST-Chk1, 40 minutes at 30° C.
T1 sequence (O14757 1-476): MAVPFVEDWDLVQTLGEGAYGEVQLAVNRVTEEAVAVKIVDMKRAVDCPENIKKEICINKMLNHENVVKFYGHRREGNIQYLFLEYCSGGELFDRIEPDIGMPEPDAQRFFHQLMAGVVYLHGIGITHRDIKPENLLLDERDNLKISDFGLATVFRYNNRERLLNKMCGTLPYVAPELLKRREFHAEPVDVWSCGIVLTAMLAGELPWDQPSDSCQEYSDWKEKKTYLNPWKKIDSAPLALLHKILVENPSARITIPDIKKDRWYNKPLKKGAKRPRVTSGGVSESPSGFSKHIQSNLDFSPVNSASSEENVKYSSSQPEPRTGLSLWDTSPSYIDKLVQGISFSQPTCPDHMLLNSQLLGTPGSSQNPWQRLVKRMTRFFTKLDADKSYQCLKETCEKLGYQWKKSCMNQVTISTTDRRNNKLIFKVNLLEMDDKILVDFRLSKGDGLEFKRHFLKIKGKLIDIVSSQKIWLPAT
Description: The assay mixture containing the inhibitor and Chk1 enzyme was mixed together in a microtiter plate in a final volume of 50 μl and incubated for 40 minutes at 30° C.
The reaction was stopped by adding 50 μl of 50 mM phosphoric acid. 90 μl of the mixture was transferred to a pre-wetted 96-well Multiscreen MAPHNOB filtration plate (Millipore) and filtered on a vacuum manifold. […] The filtration plate was dried for 10 min at 65° C., scintillant added and phosphorylated peptide quantified in a scintillation counter (Trilux, PerkinElmer)

PDK1 enzyme = target: T2, PDK1 enzyme (Homo sapiens, UniProt O15530); test: PDK1 kinase inhibition assay (33P phosphorylation of synthetic peptide, filter plate); conditions: 0.01 mM ATP, 60 min at 30° C.
T2 sequence (O15530 1-556): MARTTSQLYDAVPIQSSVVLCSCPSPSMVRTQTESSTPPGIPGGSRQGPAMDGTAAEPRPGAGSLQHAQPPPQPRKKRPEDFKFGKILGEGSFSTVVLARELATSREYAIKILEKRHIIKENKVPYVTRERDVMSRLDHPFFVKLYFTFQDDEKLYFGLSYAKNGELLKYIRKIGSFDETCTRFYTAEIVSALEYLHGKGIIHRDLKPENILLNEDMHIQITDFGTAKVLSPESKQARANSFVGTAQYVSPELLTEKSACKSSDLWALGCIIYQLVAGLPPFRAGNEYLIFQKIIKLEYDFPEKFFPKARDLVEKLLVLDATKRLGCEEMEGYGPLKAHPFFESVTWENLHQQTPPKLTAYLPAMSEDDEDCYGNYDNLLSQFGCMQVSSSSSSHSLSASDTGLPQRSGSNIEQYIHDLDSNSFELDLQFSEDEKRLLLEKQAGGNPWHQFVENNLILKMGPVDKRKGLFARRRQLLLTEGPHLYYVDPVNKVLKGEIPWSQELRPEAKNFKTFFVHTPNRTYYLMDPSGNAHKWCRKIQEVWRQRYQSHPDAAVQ
Description: as §1, with “and PDK1 enzyme” for “and CDK-2 enzyme, complexed with cyclin A (0.4 U/ml)”, “for 60” for “for 40”, “contained 0.01” for “contained 0.1”, “^33P-γ-ATP, 0.075” for “^33P-γ-ATP, 0.03”, “acetate, 0.05M Tris.HCl,” for “acetate, 50 mM HEPES-NaOH,”, “pH 7.5, 0.5% 2-mercaptoethanol.” for “pH 7.5.”

Structure (SMILES)	IC50 [1] [µM]	IC50 (GST-Chk1 enzyme; read-out: Chk1 IC50) [µM]	IC50 (PDK1 enzyme; read-out: PDK1 IC50) [µM]	IC50 (GST-Chk1 enzyme; Chk1 IC50(μM)) [µM]	IC50 (PDK1 enzyme; PDK1 IC50(μM)) [µM]
COc1cc(Nc2ccc(S(=O)(=O)N(C)C)cc2)n2ncc(C(C)C)c2n1 [Example 66]	0.876	> 200	> 200		
CC(C)c1cnn2c(Nc3ccc(S(=O)(=O)N(C)C)cc3)cc(C(=O)NCCN)nc12 [Example 118]	6.76	36.8	> 200		
CC(C)c1cnn2c(Nc3ccc(S(=O)(=O)N(C)C)cc3)cc(NCC(C)(C)CN(C)C)nc12 [Example 106]	3.34	18.2	14.4		
CCc1cnn2c(Nc3ccc(C(=O)NCCN(CC)CC)cc3)cc(Cl)nc12 [Example 152]	0.79	32			
CC(C)c1cnn2c(Nc3ccc(S(=O)(=O)N(C)CCN(C)C)cc3)cc(N[C@H]3CC[C@H](N)CC3)nc12 [Example 99]	0.128	0.953	6.91		
NS(=O)(=O)c1ccc(Nc2cc(OC3CCCCC3)nc3ccnn23)cc1 [Example 22]	0.3	> 200	70.3		
CC(C)c1cnn2c(Nc3ccc(S(C)(=O)=O)cc3)cc(OCCN(C)C)nc12 [Example 53]	8.41	> 200	> 200		
CCc1cnn2c(Nc3ccc(S(=O)(=O)N(C)C)cc3)cc(Cl)nc12 [Example 52]	0.239	> 200	> 200		
CC(C)c1cnn2c(Nc3ccc(S(=O)(=O)NCCO)cc3)cc(Cl)nc12 [Example 37]	1.51	> 200	> 200		
CN(C)S(=O)(=O)c1ccc(Nc2cc(N[C@@H]3CCCC[C@@H]3N)nc3c(Br)cnn23)cc1 [Example 138]	0.565	0.97	> 50		
CCNC(=O)c1cc(Nc2ccc(S(=O)(=O)N(C)C)cc2)n2ncc(C(C)C)c2n1 [Example 115]	7.89	> 200	> 200		
CC(=O)N[C@H]1CC[C@H](Nc2cc(Nc3ccc(S(=O)(=O)N(C)C)cc3)n3ncc(C(C)C)c3n2)CC1 [Example 79]	0.066	> 200	> 200		
CS(=O)(=O)c1ccc(Nc2cc(Cl)nc3c(Cc4ccccc4)cnn23)cc1 [Example 23]	> 200	> 200	> 200		
CN(C)S(=O)(=O)c1ccc(Nc2cc(N[C@H]3CC[C@H](N)CC3)nc3c(-c4ccccc4)cnn23)cc1 [Example 163]	10	1.53	6		
CC(C)c1cnn2c(Nc3ccc(S(=O)(=O)N(C)C)cc3)cc(N3CCC[C@H]3CN)nc12 [Example 97]	7.81	4.75	> 200		
COc1ccc(CNc2cc(-c3ccsc3)nc3ccnn23)cc1 [Example 8]	7.55	> 200	> 200		
CC(C)c1cnn2c(Nc3ccc(S(=O)(=O)N(C)C)cc3)cc(N3CCCC(CN(C)C)C3)nc12 (stereo not shown) [Example 89]	8.27	> 200	> 200		
CC1(C)CC(Nc2cc(Nc3ccc(S(=O)(=O)Nc4nccs4)cc3)n3ncc(Br)c3n2)CC(C)(C)N1 [Example 166]	16.9	17	2.15		
CC(C)c1cnn2c(Nc3ccc(S(C)(=O)=O)nc3)cc(Cl)nc12 [Example 84]	0.298	> 200	> 200		

Structure (SMILES)	IC50 [1] [µM]	IC50 (GST-Chk1 enzyme; read-out: Chk1 IC50) [µM]	IC50 (PDK1 enzyme; read-out: PDK1 IC50) [µM]	IC50 (GST-Chk1 enzyme; Chk1 IC50(μM)) [µM]	IC50 (PDK1 enzyme; PDK1 IC50(μM)) [µM]
CC(C)c1cnn2c(Nc3ccc(S(=O)(=O)N(C)C)cc3)cc(NC3CCCC(N)C3)nc12 (stereo not shown) [Example 113]	2.05	2.2	3.12		
CCN(CC)C(=O)COc1cc(Nc2ccc(S(=O)(=O)N(C)C)cc2)n2ncc(C(C)C)c2n1 [Example 88]	0.419	> 200	> 200		
CC(C)c1cnn2c(Nc3ccc(S(=O)(=O)N(C)C)cc3)cc(N3CCC(CN)CC3)nc12 [Example 95]	1.86	24.9	64.2		
CC(C)c1cnn2c(Nc3ccc(S(=O)(=O)NCCN(C)C)cc3)cc(OC3CCCCC3)nc12 [Example 91]	0.881	5.36	> 200		
CC(C)c1cnn2c(Nc3ccc(S(=O)(=O)N(C)CCN(C)C)cc3)cc(Cl)nc12 [Example 60]	0.04	> 200	> 200		
NS(=O)(=O)c1ccc(Nc2ccnc3ccnn23)cc1 [Example 20]	1.76	> 200	> 200		
NC(=O)c1ccc(Nc2cc(N[C@H]3CC[C@@H](N)CC3)nc3c(Br)cnn23)cc1 [Example 165]	0.026	0.62	1.2		
CS(=O)(=O)c1ccc(Nc2cc(OC3CCCCC3)nc3ccnn23)cc1 [Example 21]	1.32	> 200	> 200		
CC(C)c1cnn2c(Nc3ccc(S(=O)(=O)N(C)C)cc3)cc(C(=O)N3CCC(N)CC3)nc12 [Example 123]	1.34	> 200			
CNCCNC(=O)c1cc(Nc2ccc(S(=O)(=O)N(C)C)cc2)n2ncc(C(C)C)c2n1 [Example 155]	0.142	53			
N[C@H]1CC[C@H](Nc2cc(Nc3ccc(S(=O)(=O)c4ccccc4)cc3)n3ncc(Br)c3n2)CC1 [Example 137]		0.717	1.06		
CN(C)S(=O)(=O)c1ccc(Nc2cc(O[C@@H]3CCNC3)nc3c(Cl)cnn23)cc1 [Example 195]	0.24	7.79			
Brc1cccc(-c2cc(NCc3ccncc3)n3nccc3n2)c1 [Example 3]		29.6	34.6		
CC(C)c1cnn2c(Nc3ccc(S(=O)(=O)N(C)C)cc3)cc(N[C@H]3CC[C@@H](N)CC3)nc12 [Example 116]		2.19	0.536		
CC(C)c1cnn2c(Nc3ccc(S(N)(=O)=O)cc3)cc(N[C@H]3CC[C@H](N)CC3)nc12 [Example 134]	0.026		4.43		
CC(C)c1cnn2c(Nc3ccc(S(=O)(=O)N(C)C)cc3)cc(N[C@H]3CC[C@H](N)CC3)nc12 [Example 30, 3-isopropyl-5-(trans-4-aminocyclohexylamino)-7-(4-(N,N-dimethylsulphonamido)phenylamino)pyrazolo[1,5-a]pyrimidine]		5.51	19.9		
CC(C)c1cnn2c(Nc3ccc(S(=O)(=O)N(C)C)cc3)cc(N[C@H]3CCCC[C@H]3N)nc12 [Example 132]	3.63		10.4		
CS(=O)(=O)c1ccc(Nc2cc(Cl)nc3ccnn23)cc1 [Example 15]				> 200	> 200
